From the supplement of paper PMC10307832

Tests used:
Assay in all cases: relative viability (nuclei count vs DMSO), 5 days (fraction); higher = more cells survive
Cediranib + Pemetrexed = compound: COc1cc2c(Oc3ccc4[nH]c(C)cc4c3F)ncnc2cc1OCCCN1CCCC1 [Cediranib] + Nc1nc2[nH]cc(CCc3ccc(C(=O)N[C@@H](CCC(=O)O)C(=O)O)cc3)c2c(=O)[nH]1 [Pemetrexed] (partner 0.2 µM)
Procedure, shortened: (§1)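 For relative viability, nuclei counts in treated wells were divided by those in vehicle wells. Lung cancer cell lines had been pin-tool dosed in 1536-well plates the day after seeding and cultured for 5 days, then fixed and stained in one step (final 0.05% Triton X-100, 1% formaldehyde, 1 ug/ml Hoechst) and imaged at 4×. Doses were one drug alone or a fixed anchor-drug dose plus five library-drug doses (not always all listed) in √10 steps, and values are duplicate-plate medians.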

Decitabine + Bortezomib = compound: Nc1ncn([C@H]2C[C@H](O)[C@@H](CO)O2)c(=O)n1 [Decitabine] + CC(C)C[C@H](NC(=O)[C@H](Cc1ccccc1)NC(=O)c1cnccn1)B(O)O [Bortezomib] (partner 0.002 µM)
Procedure, shortened: as §1

[1] = compound: O=C(C[C@H]1NCCC[C@@H]1O)Cn1cnc2cc(Br)c(Cl)cc2c1=O (racemic) [Halofuginone] + CC1(C)CCC(c2ccc(Cl)cc2)=C(CN2CCN(c3ccc(C(=O)NS(=O)(=O)c4ccc(N[C@H](CCN5CCOCC5)CSc5ccccc5)c(S(=O)(=O)C(F)(F)F)c4)cc3)CC2)C1 [Navitoclax] (partner 0.5 µM)
Procedure, shortened: as §1

Cediranib + Luminespib = compound: COc1cc2c(Oc3ccc4[nH]c(C)cc4c3F)ncnc2cc1OCCCN1CCCC1 [Cediranib] + CCNC(=O)c1noc(-c2cc(C(C)C)c(O)cc2O)c1-c1ccc(CN2CCOCC2)cc1 [Luminespib] (partner 0.01 µM)
Procedure, shortened: as §1

Cell Line	relative viability (Cediranib + Pemetrexed; first compound 0.04 µM)	relative viability (Cediranib + Pemetrexed; first compound 0.1265 µM)	relative viability (Cediranib + Pemetrexed; first compound 0.4 µM)	relative viability (Cediranib + Pemetrexed; first compound 1.265 µM)	relative viability (Cediranib + Pemetrexed; first compound 4 µM)	relative viability (Decitabine + Bortezomib; first compound 0.04 µM)	relative viability (Decitabine + Bortezomib; first compound 0.1265 µM)	relative viability (Decitabine + Bortezomib; first compound 0.4 µM)	relative viability (Decitabine + Bortezomib; first compound 1.265 µM)	relative viability (Decitabine + Bortezomib; first compound 4 µM)	relative viability ([1]; first compound 0.001 µM)	relative viability ([1]; first compound 0.003162 µM)	relative viability ([1]; first compound 0.01 µM)	relative viability ([1]; first compound 0.03162 µM)	relative viability ([1]; first compound 0.1 µM)	relative viability (Cediranib + Luminespib; first compound 0.04 µM)	relative viability (Cediranib + Luminespib; first compound 0.4 µM)	relative viability (Cediranib + Luminespib; first compound 1.265 µM)	relative viability (Cediranib + Luminespib; first compound 4 µM)	relative viability (Cediranib + Luminespib; first compound 0.1265 µM)
HCC-366	0.491	0.161	0.149	0.18	0.173	0.971	0.788	0.421	0.197	0.121	1.05	1.07	1.04	1.04	0.0551					
HCC-827	0.31	0.235	0.231	0.259	0.259	0.748	0.567	0.399	0.36	0.372	1.05	1.05	1.01	1.01	0.852	0.724	0.541	0.5	0.439	
HOP-62	0.576	0.305	0.252	0.39	0.313	0.418	0.23	0.23	0.0953	0.0952	1.14	0.785	0.933	1.04	0.873	1.01	0.79	0.949	0.94	
IA-LM						0.44	0.54	0.257	0.172	0.185	0.864	0.961	0.702	0.572	0.0557					
LC-2-ad	0.289	0.3	0.278	0.298	0.275	0.799	0.779	0.459	0.304	0.329	0.555	0.469	0.43	0.459	0.101	1.05	0.99	1.08	0.772	1.06
LCLC-103H	0.502	0.477	0.514	0.427	0.475	0.985	1.04	0.966	0.9	0.749						0.931	0.952	1	0.894	1.05
LK-2	0.324	0.202	0.247	0.177	0.209						0.78	0.979	0.81	0.931	0.603	0.217	0.196	0.159	0.188	0.16
NCI-H358	0.176	0.198	0.168	0.17	0.187											0.257	0.381	0.328	0.364	0.426
NCI-H522	1.16	0.713	1.14	0.863	0.995											1.13	1.17	1.03	1.02	
NCI-H650	0.862	0.569	0.955	0.978	1.08	0.509	0.534	0.227	0.294	0.223						0.842	0.763	1.02	0.774	0.831
NCI-H661	0.974	0.927	0.935	0.891	1.03	0.688	0.61	0.459	0.339	0.332						0.978	0.913	0.908	0.982	0.842
NCI-H727						0.697	0.672	0.382	0.605	0.418	0.481	0.316	0.397	0.355	0.22		0.511	0.463	0.395	
NCI-H1299						1.01	0.988	0.965	0.867	0.865	1.1	1.05	1.05	1.02	0.964					
NCI-H1395	0.915	0.985	0.825	0.76	0.801						1.15	1.44	1.07	1.16	1.26	0.787	0.734	0.754	0.535	0.569
NCI-H1563	0.885	0.879	0.843	0.675	0.872	0.801	1.02	1.16	0.987	0.908						0.513	0.541	0.559	0.601	0.456
NCI-H1623																0.528	0.425	0.457	0.526	
NCI-H1648	0.563	0.551	0.617	0.634	0.372															
NCI-H1703						0.243	0.258	0.2	0.182	0.176	1.46	1.04	1.08	0.765	0.194					
NCI-H1793	0.822	0.991	0.693	0.568	1.14						0.409	0.367	0.406	0.396	0.195	0.182	0.224		0.201	0.176
NCI-H1944	0.709	0.473	0.562	0.593	0.713						1.04	1.06	1.02	1.05	1.01	0.767	0.741	0.72	0.963	0.796
NCI-H2170	0.295		0.233	0.264	0.258						0.631	0.724	0.595	0.699	0.387	0.654	0.666	0.547	0.848	0.704
NCI-H2342	0.764	0.808	0.805	0.681	0.797											0.858	0.919	0.704	0.82	0.801
SK-MES-1	1.02	1.01	0.901	0.964	1.03						1.22	1.16	1.18	0.67	0.197	0.797	0.9	0.833	0.86	0.869
SW 900	0.52	0.509	0.463	0.46	0.537											0.167	0.195	0.188	0.169	0.186
